Six compounds from publication PMC12136037, “Type II kinase inhibitors that target Parkinson’s disease–associated LRRK2” (Science Advances, 2025) can be followed below.

Several values for one entry are separate records, joined by “and”; a condition that tells them apart may be missing. Identical values can stand only once.

One experiment concerns the target T1, LRRK2^RCKW (Homo sapiens, UniProt Q5S007).
T1 construct: LRRK2 R1327 to E2527; His6-Z-tag (TEV cleavable) (N, cleaved yes); host or cells: Sf9 insect cells (baculovirus)
T1 sequence (Q5S007 1327-2527): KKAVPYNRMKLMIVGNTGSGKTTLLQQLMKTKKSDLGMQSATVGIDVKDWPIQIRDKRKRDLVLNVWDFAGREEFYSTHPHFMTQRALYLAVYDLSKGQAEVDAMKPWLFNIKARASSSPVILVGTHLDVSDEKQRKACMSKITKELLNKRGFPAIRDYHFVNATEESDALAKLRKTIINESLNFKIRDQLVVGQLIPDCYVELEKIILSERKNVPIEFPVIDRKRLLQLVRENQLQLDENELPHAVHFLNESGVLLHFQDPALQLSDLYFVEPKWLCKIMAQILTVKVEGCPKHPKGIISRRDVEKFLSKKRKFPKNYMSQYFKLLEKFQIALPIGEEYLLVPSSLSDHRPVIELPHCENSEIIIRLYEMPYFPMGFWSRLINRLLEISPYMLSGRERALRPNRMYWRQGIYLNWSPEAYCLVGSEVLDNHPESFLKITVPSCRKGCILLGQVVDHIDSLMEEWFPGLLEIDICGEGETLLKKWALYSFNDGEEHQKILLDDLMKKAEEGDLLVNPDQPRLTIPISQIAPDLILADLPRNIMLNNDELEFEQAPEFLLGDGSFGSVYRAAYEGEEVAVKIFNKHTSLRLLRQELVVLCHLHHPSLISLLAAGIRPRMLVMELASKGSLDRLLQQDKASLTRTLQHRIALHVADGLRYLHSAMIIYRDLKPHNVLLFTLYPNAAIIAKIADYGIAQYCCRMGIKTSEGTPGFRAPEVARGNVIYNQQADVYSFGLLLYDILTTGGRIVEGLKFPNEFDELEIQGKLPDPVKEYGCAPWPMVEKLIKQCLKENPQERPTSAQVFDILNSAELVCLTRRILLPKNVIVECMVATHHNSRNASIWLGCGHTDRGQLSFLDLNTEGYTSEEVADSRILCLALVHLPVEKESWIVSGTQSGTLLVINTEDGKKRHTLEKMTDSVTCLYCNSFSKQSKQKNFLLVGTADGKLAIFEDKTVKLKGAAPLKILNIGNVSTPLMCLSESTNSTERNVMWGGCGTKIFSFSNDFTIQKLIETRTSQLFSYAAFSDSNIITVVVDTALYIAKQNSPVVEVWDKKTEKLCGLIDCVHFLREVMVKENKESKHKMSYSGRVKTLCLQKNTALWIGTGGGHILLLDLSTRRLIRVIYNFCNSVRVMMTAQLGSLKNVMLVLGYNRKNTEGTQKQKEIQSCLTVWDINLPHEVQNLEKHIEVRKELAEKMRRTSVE
Description: Biochemical LRRK2 activity assay (PhosphoSense, AssayQuant SOX peptide AQT0615). The following applies: for IC50: LRRK2^RCKW kinase activity, in vitro; for normalized response (LRRK2 activity): normalized to 0% (no kinase) and 100% (no inhibitor) control, two singlicate columns per compound. The method in brief: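 Controls lacked protein and compound (0%) or compound only (100%). IC50 derived by nonlinear regression of normalized response versus log[inhibitor].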

Another experiment deals with T2, LRRK2^KW (Homo sapiens, UniProt Q5S007).
T2 construct: LRRK2 R1847 to E2527; His6-Z-tag (TEV cleavable) (N, cleaved yes); host or cells: Sf9 insect cells (baculovirus)
T2 sequence (Q5S007 1847-2527): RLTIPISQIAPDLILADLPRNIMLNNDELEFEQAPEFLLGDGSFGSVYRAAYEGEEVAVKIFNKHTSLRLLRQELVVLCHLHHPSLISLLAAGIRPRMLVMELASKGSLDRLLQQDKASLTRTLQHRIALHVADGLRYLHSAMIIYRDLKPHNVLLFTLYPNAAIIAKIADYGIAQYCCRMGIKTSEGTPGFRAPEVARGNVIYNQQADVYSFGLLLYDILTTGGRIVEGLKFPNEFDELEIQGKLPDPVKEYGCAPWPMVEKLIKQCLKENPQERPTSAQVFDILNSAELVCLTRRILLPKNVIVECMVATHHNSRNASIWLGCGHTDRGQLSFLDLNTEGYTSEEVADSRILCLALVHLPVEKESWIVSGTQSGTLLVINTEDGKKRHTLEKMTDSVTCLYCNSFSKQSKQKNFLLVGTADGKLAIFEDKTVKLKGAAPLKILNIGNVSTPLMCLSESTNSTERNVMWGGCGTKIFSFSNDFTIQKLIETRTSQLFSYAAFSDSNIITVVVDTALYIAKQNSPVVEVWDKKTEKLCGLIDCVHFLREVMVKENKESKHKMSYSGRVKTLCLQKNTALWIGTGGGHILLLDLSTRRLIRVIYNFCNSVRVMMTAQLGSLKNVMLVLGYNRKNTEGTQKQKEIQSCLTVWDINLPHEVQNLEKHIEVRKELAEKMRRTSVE
Description: DSF thermal stabilization of LRRK2^KW. The class given is binding. The note with it: DSF, LRRK2^KW, 10 μM inhibitor. The method, boiled down: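 DSF on 4 μM LRRK2^KW in 20 mM Hepes pH 7.4, 150 mM NaCl, 0.5 mM TCEP, 0.5% glycerol, 20 μM GDP, 2.5 mM MgCl2 with SYPRO Orange; inhibitor at 10 μM. Tm was taken as the minimum of the first derivative of fluorescence versus temperature, relative to control.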

Compound `O=C(Nc1ccccc1)C1(C(=O)Nc2cccc(-c3c[nH]c4ncnc(N5CCOCC5)c34)c2)CC1` [Compound 12] registered a half-maximal inhibitory concentration (IC50) on LRRK2^RCKW of 350 ± 25 nM. In addition, the “normalized response (LRRK2 activity)” value is 0.1647% and -9.791% on LRRK2^RCKW (log[inhibitor(mol)] -4.82391); -4.574% and -1.793% at LRRK2^RCKW (log[inhibitor(mol)] -5.12494); 1.386% and 6.849% on LRRK2^RCKW (log[inhibitor(mol)] -5.60206); 35.45% and 38.9177% at LRRK2^RCKW (log[inhibitor(mol)] -6.30103); 76.566% and 79.9356% on LRRK2^RCKW (log[inhibitor(mol)] -6.90309); 91.6032% and 94.9482% at LRRK2^RCKW (log[inhibitor(mol)] -7.30103). Further, the “normalized response (LRRK2 activity)” value was 99.2139% and 97.704% at LRRK2^RCKW (log[inhibitor(mol)] -7.60206); 99.3121% and 101.951% on LRRK2^RCKW (log[inhibitor(mol)] -8.09691); 104.222% and 110.035% on LRRK2^RCKW (log[inhibitor(mol)] -8.61979); 103.486% and 106.278% on LRRK2^RCKW (log[inhibitor(mol)] -9.09691); 106.585% and 109.47% at LRRK2^RCKW (log[inhibitor(mol)] -9.39794). In addition, at LRRK2^KW, the “∆Tm (K)” value came out at 9.3 K.

The compound `O=C(Nc1ccc(Cl)cc1)C1(C(=O)Nc2cccc(-c3c[nH]c4ncnc(N5CCOCC5)c34)c2)CC1` [Compound 13] had a half-inhibitory concentration (IC50) at LRRK2^RCKW of 717 ± 14 nM. The “normalized response (LRRK2 activity)” value at LRRK2^RCKW (log[inhibitor(mol)] -5.60206) is 15.0853% and 13.379%; at LRRK2^RCKW (log[inhibitor(mol)] -6.30103), 62.4187% and 38.0646%; on LRRK2^RCKW (log[inhibitor(mol)] -6.90309), 95.7707% and 92.6957%; at LRRK2^RCKW (log[inhibitor(mol)] -7.30103), 101.552% and 99.1095%; at LRRK2^RCKW (log[inhibitor(mol)] -7.60206), 102.657% and 105.64%; at LRRK2^RCKW (log[inhibitor(mol)] -8.09691), 106.745% and 99.576%. Besides, the “normalized response (LRRK2 activity)” value at LRRK2^RCKW (log[inhibitor(mol)] -8.61979) was 101.35% and 101.951%; at LRRK2^RCKW (log[inhibitor(mol)] -9.09691), 104.075% and 108.101%; at LRRK2^RCKW (log[inhibitor(mol)] -9.39794) it was 110.679% and 104.597%. Moreover, the “∆Tm (K)” value on LRRK2^KW amounted to 9.5 K.

On LRRK2^RCKW, `Cc1ccc(NC(=O)C2(C(=O)Nc3cccc(-c4c[nH]c5ncnc(N6CCOCC6)c45)c3)CC2)cc1` [Compound 14] gave an IC50 of 156 ± 33 nM. The “normalized response (LRRK2 activity)” value on LRRK2^RCKW (log[inhibitor(mol)] -5.12494) is -6.986% and -9.956%; at LRRK2^RCKW (log[inhibitor(mol)] -5.60206) it was 21.8981% and 20.2655%; at LRRK2^RCKW (log[inhibitor(mol)] -6.30103), 13.87% and 15.03%; on LRRK2^RCKW (log[inhibitor(mol)] -6.90309) it was 58.2022% and 57.0299%; on LRRK2^RCKW (log[inhibitor(mol)] -7.30103) it was 81.6541% and 110.82%; on LRRK2^RCKW (log[inhibitor(mol)] -7.60206), 85.6497% and 54.8081%. In addition, the “normalized response (LRRK2 activity)” value at LRRK2^RCKW (log[inhibitor(mol)] -8.09691) was 91.8548% and 92.1679%; on LRRK2^RCKW (log[inhibitor(mol)] -8.61979) it was 98.0477% and 97.5874%; at LRRK2^RCKW (log[inhibitor(mol)] -9.09691), 93.5857% and 99.2323%; at LRRK2^RCKW (log[inhibitor(mol)] -9.39794), 96.7834% and 110.495%. At LRRK2^KW, the “∆Tm (K)” value is reported as 9.1 K.

In turn, `CCc1ccc(NC(=O)C2(C(=O)Nc3cccc(-c4c[nH]c5ncnc(N6CCOCC6)c45)c3)CC2)cc1` [Compound 15] came in with an IC50 on LRRK2^RCKW of 960 ± 33 nM. In addition, the “normalized response (LRRK2 activity)” value is -0.2711% and -2.401% at LRRK2^RCKW (log[inhibitor(mol)] -5.12494); 22.7451% and 24.0892% at LRRK2^RCKW (log[inhibitor(mol)] -5.60206); 67.6419% and 69.4402% at LRRK2^RCKW (log[inhibitor(mol)] -6.30103); 95.7584% and 98.1889% on LRRK2^RCKW (log[inhibitor(mol)] -6.90309); 103.897% and 98.4037% on LRRK2^RCKW (log[inhibitor(mol)] -7.30103); 108.801% and 106.855% at LRRK2^RCKW (log[inhibitor(mol)] -7.60206). Moreover, the “normalized response (LRRK2 activity)” value was 103.13% and 100.705% at LRRK2^RCKW (log[inhibitor(mol)] -8.09691); 105.315% and 96.9982% at LRRK2^RCKW (log[inhibitor(mol)] -8.61979); 106.518% and 101.982% on LRRK2^RCKW (log[inhibitor(mol)] -9.09691); 107.174% and 104.775% on LRRK2^RCKW (log[inhibitor(mol)] -9.39794). Besides, on LRRK2^KW, the “∆Tm (K)” value is 9.1 K.

Compound `COc1ccc(NC(=O)C2(C(=O)Nc3cccc(-c4c[nH]c5ncnc(N6CCOCC6)c45)c3)CC2)cc1` [Compound 16] displayed a 50% inhibitory concentration (IC50) against LRRK2^RCKW of 1100 ± 217 nM. For the same compound, the “normalized response (LRRK2 activity)” value on LRRK2^RCKW (log[inhibitor(mol)] -4.82391) is -5.114% and -9.8151%; on LRRK2^RCKW (log[inhibitor(mol)] -5.12494) it was 0.6005% and -2.272%; on LRRK2^RCKW (log[inhibitor(mol)] -5.60206), 29.0484% and 32.3505%; at LRRK2^RCKW (log[inhibitor(mol)] -6.30103), 66.3591% and 78.0881%; at LRRK2^RCKW (log[inhibitor(mol)] -6.90309), 96.3721% and 94.5984%; at LRRK2^RCKW (log[inhibitor(mol)] -7.30103), 96.366% and 105.259%. Moreover, the “normalized response (LRRK2 activity)” value was 97.2621% and 95.7829% on LRRK2^RCKW (log[inhibitor(mol)] -7.60206); 97.8759% and 91.3822% at LRRK2^RCKW (log[inhibitor(mol)] -8.09691); 98.0661% and 96.7588% at LRRK2^RCKW (log[inhibitor(mol)] -8.61979); 100.497% and 98.6001% at LRRK2^RCKW (log[inhibitor(mol)] -9.09691); 96.0714% and 99.3612% at LRRK2^RCKW (log[inhibitor(mol)] -9.39794). In addition, the “∆Tm (K)” value on LRRK2^KW is 4.3 K.

On LRRK2^RCKW, `O=C(Nc1cccc(-c2c[nH]c3ncnc(N4CCOCC4)c23)c1)C1(C(=O)Nc2ccc(F)c(F)c2)CC1` [Compound 17] displayed an IC50 of 253 ± 33 nM. The “normalized response (LRRK2 activity)” value on LRRK2^RCKW (log[inhibitor(mol)] -4.82391) was -1.222% and -11.0979%; on LRRK2^RCKW (log[inhibitor(mol)] -5.12494), -9.447% and -10.6928%; on LRRK2^RCKW (log[inhibitor(mol)] -5.60206), 0.9319% and 1.085%; on LRRK2^RCKW (log[inhibitor(mol)] -6.30103), 26.1821% and 29.3798%; at LRRK2^RCKW (log[inhibitor(mol)] -6.90309), 67.0342% and 72.3494%; at LRRK2^RCKW (log[inhibitor(mol)] -7.30103), 85.8031% and 94.494%. Besides, the “normalized response (LRRK2 activity)” value was 98.3853% and 103.983% at LRRK2^RCKW (log[inhibitor(mol)] -7.60206); 103.068% and 102.123% on LRRK2^RCKW (log[inhibitor(mol)] -8.09691); 111.403% and 110.329% at LRRK2^RCKW (log[inhibitor(mol)] -8.61979); 113.398% and 109.795% on LRRK2^RCKW (log[inhibitor(mol)] -9.09691); 105.315% and 104.756% at LRRK2^RCKW (log[inhibitor(mol)] -9.39794). Besides, on LRRK2^KW, the “∆Tm (K)” value was determined as 10.3 K.
